From a melting point compilation (Tetko et al.; mined from patent text by program, amines drawn as free bases though some values may be those of a salt)

For `COc1cccc(OC)c1C(=O)Nc1nnc(-c2ccc(NC(C)=O)cc2)s1`, the melting point was 211 to 213 °C.
`CN(C)C(=O)Cc1ccccc1Nc1c(F)c(F)cc(F)c1F` gave a melting point of 109 to 110 °C.
`CN1C(=O)CN(c2ccc(OCc3ccccc3)cc2)NC1=O` gave a melting point of 224 to 227 °C.
`O=c1ncc(Cl)cn1COCc1cccs1` gave a melting point of 132 °C.
In the case of `Cc1c(/C=C/C(=O)O)cnn1C`, the melting point is reported as 217 to 219 °C.
For `CCOC(=O)c1ccc2c(c1)CCCC2Cn1ccnc1S` (stereo not given), the melting point was 155 to 156 °C.
In the case of `O=C(NCCCn1ccnc1)c1ccccc1NS(=O)(=O)c1ccc(Cl)cc1`, the melting point is reported as 175 to 177 °C.
Work on `CC(C)c1ccc(S(=O)(=O)c2ccccc2)cc1S(=O)(=O)NC1CCN(C(=O)c2ccccc2)CC1` yielded a melting point of 225 °C.
`COC(=O)Oc1ccc([N+](=O)[O-])cc1` showed a melting point of 111 to 112 °C.
For `Nc1c(Cl)cc2nc(O)c(O)nc2c1[N+](=O)[O-]`, the melting point was > 300 °C.
Compound `CC(=NNC(=O)C1CCCCC1)c1ccncc1` has a melting point of 195 °C.
Work on `COC(=O)C(=C/c1c(OC)cc(OC)cc1OC)/C(=C\c1ccccc1)C(N)=O` yielded a melting point of 169 to 171 °C.
For `C[C@H]1N[C@H](c2ccc(Br)cc2)[C@@H]2C(=O)N(Cc3ccccc3)C(=O)[C@@H]21` (racemic), the melting point was 170 to 172 °C.
With `CCc1ccnc2cc(OC)c(OCc3ccccc3)cc12` the melting point was 132 to 134 °C.
For `CNC(=O)Nc1ccc(C(=O)O)cc1`, the melting point was > 300 °C.
For `CCN(CC)c1ccc(S(=O)(=O)N2CCCC2=S)cc1`, the melting point was 183 to 184 °C.
`CCC(=O)c1cc(C(=O)O)c2cc(Cc3ccc(F)cc3)cnc2c1O` gave a melting point of 235 to 237 °C.
`CCCCCCC(=O)N1C(C)Cc2ccccc2C1CNC(=O)c1cc(OC)c(OC)c(OC)c1` (stereo not given) gave a melting point of 161 to 163 °C.
`CCNC(=O)N1N=C(c2ccc(N)cc2)c2cc(Cl)ccc2CC1C` (stereo not given) gave a melting point of 165 to 167 °C.
Compound `CC1NC(=O)COC1=O` (stereo not given) has a melting point of 139 to 141 °C.
`OCc1ccccc1SCCN1CCN(c2ccccc2)CC1` gave a melting point of 72 to 74 °C.
Work on `COc1cc(N)c(OCc2ccccc2)cc1OC` yielded a melting point of 74 °C.
Compound `Clc1ccc(C2COCCS2)cc1Cl` (stereo not given) has a melting point of 65 to 68 °C.
For `Cc1cc2n(c1C(=O)c1cccs1)CCC2C(=O)O` (stereo not given), the melting point was 166 °C.
Work on `COc1ccc(F)c(N)c1` yielded a melting point of 27 to 28 °C.
With `OC[C@@H]1OC[C@H](n2c(NC3CC3)nc3cc(Cl)c(Cl)cc32)[C@@H](O)[C@H]1O` the melting point was 164 °C.
Compound `CC(C)CCOc1c(-c2ccc(S(N)(=O)=O)cc2)cnn(C(C)(C)C)c1=O` has a melting point of 153 to 155 °C.
For `COC(=O)C=Cc1cc2cc(NC(=O)c3cc4ccccc4o3)ccc2[nH]1`, the melting point was 259 to 260 °C.
For `CS(=O)c1ccc(-c2coc3ccc(-c4nnc(S)o4)cc23)cc1` (stereo not given), the melting point was 234 to 235 °C.
For `CC(C)(CCC(=O)N[C@H](Cc1ccc(-c2ccccc2)cc1)C(=O)NCCCCNc1ncccn1)C(=O)O`, the melting point was 85 to 98 °C.
`CN(C)CCCC(=O)N1CCOc2cc3ncc(C#N)c(Nc4ccc(F)c(Cl)c4)c3cc21` showed a melting point of 165 °C.
Work on `CC(C)(CC(O)(Cn1cc(Cl)c(=O)c2sccc21)C(F)(F)F)c1cc(-c2cncnc2)cc2c1OCC2` (stereo not given) yielded a melting point of 218 to 219 °C.
`CC(=NOCCOc1ccc(CC2SC(=O)NC2=O)cc1)c1ccc(S(=O)(=O)c2ccncc2)cc1` (stereo not given) showed a melting point of 213 to 215 °C.
`CCn1c(=O)[nH]c2c3ccccc3ccc21` showed a melting point of 240 to 242 °C.
With `O=C1c2cccc3cc(OS(=O)(=O)C(F)(F)F)cc(c23)C(=O)N1O` the melting point was 167 to 169 °C.
`COCOc1cc(Br)ccc1-c1cc(-c2cccc([N+](=O)[O-])c2)c(C#N)c(NC(=O)c2cccs2)n1` showed a melting point of 166 to 167 °C.
With `O=C(OCC1CO1)c1cccc(C(=O)OCC2CO2)c1` (stereo not given) the melting point was 60 to 65 °C.
With `Cc1ccc(S(=O)(=O)OCC2Cc3cccc([N+](=O)[O-])c3O2)cc1` (stereo not given) the melting point was 129 to 131 °C.
For `Cc1ccc(S(=O)(=O)n2ccnc2C(O)(c2ccccc2)c2ccccc2Cl)cc1` (stereo not given), the melting point was 165 to 167 °C.
For `CC(C)(C)OC(=O)N1CCC(C2=C(C#N)C(c3ccccc3Cl)c3c[nH]nc3N2)CC1` (stereo not given), the melting point was > 280 °C.
`COc1cc2cnnc(N3CCC(CC(C)O)CC3)c2cc1OC` (stereo not given) gave a melting point of 154 to 156 °C.
For `CC(C)c1cccc(NC(=O)c2ccccc2C(F)(F)F)c1`, the melting point was 87.5 to 88.5 °C.
Compound `COC(=O)c1cccc2c1c(S(=O)(=O)NC(C)(C)C)nn2C` has a melting point of 189 to 190 °C.
For `CC(C)Oc1c(C(N)=O)oc2ccc(O)cc12`, the melting point was 183 to 185 °C.
With `O=c1cc(-c2cccc(OP(=O)(O)O)c2)[nH]c2ccc(N3CCCC3)cc12` the melting point was > 300 °C.
Compound `COc1ccccc1Cn1c(=O)c2c(N3CCNCC3)cc(Cl)cc2n(Cc2ccccc2)c1=O` has a melting point of 122 to 125 °C.
For `Cc1ccc(S(=O)(=O)N2CCC(c3ccc(C=O)cc3)CC2)cc1`, the melting point was 134 to 137 °C.
For `COc1cc(C2=CCCCC2)c(Cl)cc1C(=O)N1Cc2ccc(C(=O)N(C)C[C@@H]3OC(=O)O[C@H]3[C@H](O)[C@H]3COC(=O)O3)n2Cc2ccccc21`, the melting point was 163 to 176 °C.
For `Clc1ccc2nc(Cl)cn2c1`, the melting point was 155 to 156 °C.
Compound `O=C(Nc1ccccc1C(=O)N1CCCCC1)N[C@@H](Cc1ccc(NC(=O)c2c(Cl)cccc2Cl)cc1)C(=O)O` has a melting point of 191 °C.
Work on `N#CC1=Cc2ccccc2N(C(N)=O)c2ccccc21` yielded a melting point of 143 to 145 °C.
Compound `O=C(O)CCc1cn(Cc2ccc(OCc3ccsc3)cc2)cc1-c1ccccc1` has a melting point of 118 to 119 °C.
Compound `CC(C)C1(C)N=C(c2ccccc2C(=O)O)NC1=S` (stereo not given) has a melting point of 192 to 198 °C.
With `CCOC(=O)Cc1cnc(-c2cc3cccc(N(C)S(=O)(=O)c4cccs4)c3[nH]2)s1` the melting point was 126 to 127 °C.
Work on `ON=C1CCSc2sccc21` yielded a melting point of 123 to 124 °C.
`O=C1Nc2ccccc2OC1c1ccc(Cl)cc1` (stereo not given) gave a melting point of 180 to 182 °C.
`CCCCCC(O)C1C(=O)NC(C(=O)SCC(=O)OC)(C(O)C2C=CCCC2)C1(C)O` (stereo not given) gave a melting point of 75 °C.
`CCOC(=O)c1sc(-c2ccc(C#N)cc2)nc1COC(C)=O` gave a melting point of 127 °C.
Compound `CC(C)(C)c1cc(CCc2ccc(NC(=O)Nc3ccccc3)cc2)cc(C(C)(C)C)c1O` has a melting point of 206 to 207 °C.
For `Cn1cc(C(F)(F)F)c(CS(=O)(=O)C2=NOC(C)(C)C2)n1`, the melting point was 125 to 126 °C.
For `O=C1CCCC(S(=O)(=O)c2ccccc2)C1` (stereo not given), the melting point was 83 to 85 °C.
`CC(C)OC(=O)c1cc2c(cn1)[nH]c1cccc(Oc3ccc(Cl)cc3)c12` showed a melting point of 273 to 274 °C.
`COc1ccc(C(=O)NCCCSc2ccncc2)cc1` showed a melting point of 121 to 122 °C.
`COc1ccc2nc(-c3cccc(F)c3)cc(OP(=O)(O)O)c2c1OP(=O)(O)O` gave a melting point of 120 to 122 °C.
In the case of `c1ccc(-c2ccc(CCN3CCN(c4ccccc4)CC3)s2)cc1`, the melting point is reported as 124 °C.
In the case of `NC(=O)C(CCCCCc1ccc(Cl)cc1)C(=O)O` (stereo not given), the melting point is reported as 125 to 126 °C.
For `C[C@H](CSC(=O)c1ccc(Cl)c(S(N)(=O)=O)c1)C(=O)N1CCC[C@H]1C(=O)O`, the melting point was 143 to 146 °C.
Work on `CCCCc1nc2c(N)nc3cc(-c4ccccc4)ccc3c2n1CCCS(C)(=O)=O` yielded a melting point of 214 to 216 °C.
Work on `CC(NCCCO)c1ccc(C2CCC(N(C)C(=O)c3ccc(Cl)cc3)CC2)cc1` (stereo not given) yielded a melting point of 118 to 120 °C.
`COc1ccc(C(O)(CC(=O)N2CCOCC2)c2ccc(Cl)cc2)cc1OC` (stereo not given) showed a melting point of 150 °C.
`O=C1NC(Cc2c[nH]c3ccccc23)C(=O)N1CCCN1CCC(c2ccccc2)CC1` (stereo not given) gave a melting point of 179 to 180 °C.
For `CC(=O)ON=C(O)c1cc(C(O)=NCCO)c(C(=O)O)cc1C(=O)O`, the melting point was 194 to 195 °C.
Compound `O=C(O)c1ncn2c1CSC2` has a melting point of 184 to 185 °C.
For `CC(=O)N1CCC(CNCc2ccc(C=CC(=O)Nc3ccc(-c4ccc(Cl)cc4)cc3)cc2)CC1`, the melting point was 225 to 226 °C.
With `CCOC(=O)c1ccc(N=C(Nc2ccc(C(=O)OCC)cc2)c2ccccc2OC)cc1` the melting point was 163 to 164 °C.
Work on `CC(=O)Nc1c(C(=O)c2cccc([N+](=O)[O-])c2)[nH]c2cc(Cl)ccc12` yielded a melting point of 246 to 250 °C.
In the case of `O=C(CCc1ccccc1)N[C@H](Cc1ccc(C(F)(F)F)o1)[C@@H](O)c1ccc(F)cc1` (racemic), the melting point is reported as 91 to 92 °C.
With `C[C@@H](Nc1ncnc2cc(OCCOS(C)(=O)=O)c([N+](=O)[O-])cc12)c1ccccc1` the melting point was 128 to 134 °C.
`COc1ccc2c3c(c(=O)oc2c1)CN(CCN1CC2CCCC(C2)C1)CC3` showed a melting point of 102 to 103 °C.
For `O=C(O)c1cccc(CC2COc3cc(OCc4ccc5ccccc5n4)ccc3C2O)c1` (stereo not given), the melting point was 165 to 168 °C.
With `CC(=O)C=CCCc1ccc(OCc2ccccc2)cc1` the melting point was 70 to 72 °C.
With `Clc1ccc(-n2cc(-c3n[nH]c4ccccc34)nn2)cn1` the melting point was 272 to 280 °C.
In the case of `COc1ccc(C(=O)NCCCSc2nnnn2C)cc1`, the melting point is reported as 118 to 122 °C.
`c1ccc(-c2ncc(-c3cnc(-c4ccccn4)[nH]3)cn2)cc1` showed a melting point of 262 °C.
For `O=C1c2ccccc2C(=O)c2c1nc1ccc(Cl)cn21`, the melting point was > 300 °C.
With `Cc1ccc(N2CCOCC2)c(NC(N)=S)c1` the melting point was 181 to 182 °C.
`CNC(=S)C1(c2cnc3ccccc3c2)CCCS1` (stereo not given) showed a melting point of 159 °C.
Compound `CSc1ccc(-c2cnn(CC(F)(F)F)c(=O)c2Cl)cc1` has a melting point of 130 to 139 °C.
In the case of `C=CCSc1ccc(OC)nn1`, the melting point is reported as 25 to 27 °C.
`CCCCc1c(-c2ccncc2)[nH]c(-c2ccncc2)c1C(C)=O` showed a melting point of 93 to 95 °C.
In the case of `Nc1ccc(-c2nc3cc(N)ccc3o2)cc1`, the melting point is reported as 226 to 228 °C.
With `Cc1cc(C2=NOC(c3cccc(C(F)(F)F)c3)(C(F)(F)F)C2)ccc1Br` (stereo not given) the melting point was 84 to 85 °C.
Work on `CCOC(=O)c1ccc(COCc2csc3nc(C(=O)NCc4ccnc(OCC5CCOC5)c4)[nH]c(=O)c23)cc1` (stereo not given) yielded a melting point of 225 °C.
In the case of `COc1cccc2c1CCC2C(=O)O` (stereo not given), the melting point is reported as 117 to 118 °C.
With `COC[C@@H](O)CN1CCC(c2ccc(-c3nc4c(N[C@H]5[C@@H](C(N)=O)[C@@H]6C=C[C@H]5C6)c(Cl)cnc4[nH]3)c(OC)c2)CC1` the melting point was 189 to 191 °C.
With `CC(C)Oc1ccc2c(O)c(C(=O)O)nc(Cl)c2c1` the melting point was 139 to 141 °C.
Work on `Cc1ccc2cccc(OCc3c(C)ccc([N+](=O)[O-])c3C)c2n1` yielded a melting point of 150 to 152 °C.
Work on `CN1CCC(OC2c3ccccc3CCn3c2nc(-c2ccccc2)c3CO)CC1` (stereo not given) yielded a melting point of 120 °C.
For `Cn1ccnc1COc1cc(Cl)ncn1`, the melting point was 126 to 128 °C.
Compound `OCCN(c1ccncc1F)n1ccc2ccccc21` has a melting point of 133 to 135 °C.
